Source: patent publication US20080241274A1 (ZIOPHARM Oncology, Inc., priority 2006, published 2008)
pIC50: −log10 of the molar value. Read-outs that look alike come from different tables or passages of the source.

Experiments:
A549 NSCLC = test: Monolayer assay (DNA content by propidium iodide), single agents and indibulin combinations, A549; format: cell-based, human; settings: for IC50: Homo sapiens
Protocol: (§1) The monolayer assay determines the in vitro antitumor activity of test compounds and their capacity to inhibit survival and proliferation of established tumor cell lines. These effects can be determined by establishing the number of viable cells based on measuring the DNA content using propidium iodide. […] Between 5,000 and 10,000 cells were seeded in 96 well plates on Day 0 and the compounds were added 1 day later and incubated for 4 days. The activity was assessed by their IC50 and IC70 values.
(§2) Growth IC50 and IC70 values (Table 2) were determined using XLfit software package, and used to set the concentration ranges and drug ratios for the synergy detection part of the study.
(§3) Chou-Talalay median effect method was used to quantitatively characterize drug-drug interaction [Chou T. C. Theoretical basis, experimental design, and computerized simulation of synergism and antagonism in drug combination studies. Pharmacol Rev. 2006 September; 58(3):621-81]. […] Mixtures of the drugs at multiples of their single agent IC50's were prepared, as well as serial dilutions of the mixture. Additionally, single agent dose response was determined for the same concentration ranges as used for combination study.
(§4) The coefficient of interaction (CI(IC50)) at IC50 and coefficient of interaction under optimal experimental concentrations (CI(e)) were determined using CalcuSyn software package (Table 3, tests were performed in quadruplicate, mean values reported). Commonly, experimental values of CI<0.8 are considered synergistic, 0.8<CI<1.2 additive.

[1] = system: MCF-7 ER-positive breast cancer; test: Monolayer assay (DNA content by propidium iodide), single agents and indibulin combinations, MCF-7; format: cell-based, human
Protocol: as §1, §2, §3, §4

SKOV3 (ovarian) = test: Monolayer assay (DNA content by propidium iodide), single agents and indibulin combinations, SKOV3; format: cell-based, human; settings: Homo sapiens
Protocol: as §1, §2, §3, §4

PC3 (prostate) = test: Monolayer assay (DNA content by propidium iodide), single agents and indibulin combinations, PC3; format: cell-based, human; settings: for Combination IC50: PC3, concentration of the named drug in the combination
Protocol: as §1, §2, §3, §4

[2] = system: purified calf brain tubulin; test: Tubulin polymerization, calf brain tubulin; format: biochemical, bovine; settings: FIG. 9, read-out: IC50 of inhibition of tubulin polymerization
From the text: (§5) Tubulin from neuronal tissue is post-translationally modified and the degree of modification increases during neuronal development. Calf brain neuronal tubulin and tubulin from other tissues differ in their post-translational modifications from that of adult bovine brain. […] Tubulin polymerization is given as % over DMSO control.

[3] = system: adult bovine brain tubulin; test: Tubulin polymerization, adult bovine brain tubulin; format: biochemical; settings: bovine brain tubulin; at the highest dose tested
From the text: as §5

[4] = system: axonal microtubules of rat pheochromocytoma (PC12) cells; test: Axonal microtubule immunostaining in NGF-differentiated PC12 cells; format: cell-based; settings: PC12 neurites induced by NGF 5-6 days; 24 h treatment at 2×IC50 concentration
From the text: The outgrowth of neurites of PCl2 was induced by NGF for 5-6 days. […] Microtubules within the neurites, were visualized by immunostaining with an antibody recognizing acetylated (axonal) tubulin, leaving the cell bodies unstained.

[5] = system: MCF7 breast cancer xenografts; test: MCF7 breast cancer xenograft; format: in vivo, Human; settings: 38.3 mg/kg/d, 4×(3× week), at sacrifice of control group animals
From the text: (§6) The significant differences in pharmacodynamics and safety profile of indibulin make it a strong candidate for development as an anti-cancer drug.

[6] = system: DMBA induced mammary carcinoma; test: DMBA induced mammary carcinoma in rats; format: in vivo, Rat; settings: 46.4 mg/kg/d, 2×(3× week), at sacrifice of control group animals
From the text: as §6

[7] = system: U87 glioblastoma xenografts; test: U87 glioblastoma xenograft in nu/nu mice; format: in vivo, Human
From the text: 5×10^6 U87 glioblastoma cells were implanted subcutaneously in immunodeficient nu/nu mice. Treatment started when tumor weight was about 0.15 g (Day 0).
as §6

[8] = system: murine renal cell carcinoma RENCA; test: Murine renal cell carcinoma RENCA model; format: in vivo, Mouse
Protocol: 1.5×10^6 RENCA cells were injected into the subcapsular space of the kidney through a flank incision (Day 1). […] On Day 21 mice were sacrificed and weight and volume of primary tumors, weight and number of metastases of the lung and metastasis formation in the abdominal lymph nodes determined. […] TNP-470 has shown anti-tumor activity in different animal models and is well established for its use in RENCA.
as §6

[9] = system: human vulvar squamous cell carcinoma xenograft (A431); test: A431 vulvar squamous cell carcinoma xenograft; format: in vivo; settings: 27.5 mg/kg/d, 3×(3× week), at sacrifice of control group animals
From the text: as §6

[10] = system: human ovarian xenograft (SK-OV-3); test: SK-OV-3 ovarian xenograft; format: in vivo; settings: SKOV-3; 100 mg/kg/d, d. 0, 7, 14; at sacrifice of control group animals
From the text: as §6

papillary thyroid cancer = test: Phase I study, patient with papillary thyroid cancer; format: in vivo, human; settings: 400 mg BID continuous treatment
From the text: (§7) Treatment is ongoing. […] Treatment is ongoing.

[11] = system: ovarian cancer with brain metastases; test: Phase I study, patient with ovarian cancer with brain metastases; format: in vivo, human; settings: 400 mg BID continuous treatment; after 22 days of treatment; person
From the text: as §7

[12] = system: un-biotinylated calf brain tubulin; settings: G. Bacher, Cancer Res. 61, 2001; cited from earlier work
[13] = A549, single agent (combination study)
[14] = MCF7, indibulin + 5-FU (5FU:indibulin 10.9:1), concentration of the named drug in the combination
[15] = MCF7, indibulin + paclitaxel (paclitaxel:indibulin 0.27:1), concentration of the named drug in the combination
[16] = MCF7, indibulin + tamoxifen (tamoxifen:indibulin 100:1), concentration of the named drug in the combination
[17] = MCF7, indibulin + vinorelbine (vinorelbine:indibulin 0.016:1), concentration of the named drug in the combination

O=C(Nc1ccncc1)C(=O)c1cn(Cc2ccc(Cl)cc2)c2ccccc12 [Indibulin, N-(pyridin-4-yl)-[1-(4-chlorobenzyl)-indol-3-yl]-glyoxylic acid amide]
Single Agent IC40 (A549 NSCLC; [13]): 0.071 µg/mL
Single Agent IC50 (A549 NSCLC; [13]): 0.054 µg/mL
Single Agent IC60 (A549 NSCLC; [13]): 0.129 µg/mL
Single Agent IC70 (A549 NSCLC; [13]): 0.095 µg/mL
Combination IC70 (A549 NSCLC; A549, indibulin + carboplatin (carboplatin:indibulin 303:1), concentration of the named drug in the combination): 0.027 µg/mL
Combination IC40 (A549 NSCLC; A549, indibulin + erlotinib (erlotinib:indibulin 208:1), concentration of the named drug in the combination): 0.021 µg/mL
Combination IC60 (A549 NSCLC; A549, indibulin + etoposide, concentration of the named drug in the combination): 0.068 µg/mL
IC50 (A549 NSCLC; A549, 96 h, A549, single agent, 4 days incubation, read-out: Growth IC50): 0.038 µg/mL
IC50 (A549 NSCLC; A549, A549, single agent (combination study), read-out: Single Agent IC50): 0.092 µg/mL
IC50 (A549 NSCLC; A549, A549, indibulin + carboplatin (carboplatin:indibulin 303:1), concentration of the named drug in the combination, read-out: Combination IC50): 0.011 µg/mL
IC50 (A549 NSCLC; A549, A549, indibulin + erlotinib (erlotinib:indibulin 208:1), concentration of the named drug in the combination, read-out: Combination IC50): 0.03 µg/mL
IC50 ([1]; Homo sapiens, MCF7, MCF7, single agent (combination study), read-out: Single Agent IC50): 0.013 µg/mL
Single Agent IC84 ([1]; MCF7, single agent (combination study)): 53 ng/mL
Combination IC50 [1, 14]: 0.005 µg/mL
Combination IC60 [1, 14]: 0.0028 µg/mL
Combination IC50 ([1]; MCF7, indibulin + doxorubicin, concentration of the named drug in the combination): 0.011 µg/mL
Combination IC50 [1, 15]: 0.004 µg/mL
Combination IC84 [1, 15]: 10 ng/mL
Combination IC50 [1, 16]: 0.004 µg/mL
Combination IC60 [1, 16]: 0.0064 µg/mL
Combination IC50 [1, 17]: 0.008 µg/mL
Combination IC60 [1, 17]: 0.006 µg/mL
IC50 (SKOV3 (ovarian); SK-OV-3, SKOV3, single agent (combination study), read-out: Single Agent IC50): 0.415 µg/mL
IC50 (SKOV3 (ovarian); SK-OV-3, SKOV3, indibulin + carboplatin, concentration of the named drug in the combination, read-out: Combination IC50): 0.029 µg/mL
IC50 (SKOV3 (ovarian); SK-OV-3, SKOV3, indibulin + cisplatin, concentration of the named drug in the combination, read-out: Combination IC50): 0.022 µg/mL
IC50 (SKOV3 (ovarian); SK-OV-3, SKOV3, indibulin + gemcitabine, concentration of the named drug in the combination, read-out: Combination IC50): 0.047 µg/mL
IC50 (PC3 (prostate); Homo sapiens, PC3, single agent (combination study), read-out: Single Agent IC50): 0.034 µg/mL
Combination IC50 (PC3 (prostate); indibulin + estramustine): 0.014 µg/mL
Combination IC50 (PC3 (prostate); indibulin + prednisolone): 0.012 µg/mL
pIC50 [2]: ~6.60
Inhibition of tubulin polymerization [3]: 25%
Effect on axonal microtubules (acetylated tubulin immunostaining) [4]: did not affect axonal microtubules
Growth Inhibition (%) [5]: >100%
Growth Inhibition (%) [6]: 99.5%
Growth Inhibition (%) ([7]; U87, 27.5 mg/kg/d, 3×(3× week), at sacrifice of control group animals): 88.8%
Growth of U87 glioblastoma xenografts (in words) ([7]; orally administered, s.c. tumors in nu/nu mice, FIG. 11): inhibits growth
Growth Inhibition (%) ([8]; RENCA, 17.5 mg/kg/d, d. 1-20(5× week), at sacrifice of control group animals): 90%
Number of lung metastases ([8]; oral, daily Day 1-20 (5×/week), Day 21): trend in reduction of number of lung metastases but was not statistically significant
Reduction in tumor volume and weight ([8]; oral, daily Day 1-20 (5×/week), primary tumors on Day 21, FIG. 12): statistically significant
Growth Inhibition (%) [9]: 63%
Growth Inhibition (%) [10]: 53%
Decrease of thyroglobulin level from baseline (papillary thyroid cancer; after 15th day of dosing): 34%
Decrease of tumor measurements (papillary thyroid cancer; at first assessment): 11%
Disease status after treatment (papillary thyroid cancer; person): stable disease
Reduction of CA125 level from baseline [11]: 11%
Competition with 3H-colchicine binding [12]: does not compete
